Results reported in patent US20080076760A1, “2,3,4,5-TETRAHYDRO-1H-1,5-BENZODIAZEPINE DERIVATIVE AND MEDICINAL COMPOSITION” (priority 2004, published 2008).

Key:
[1] = target: human vasopressin V1a receptor (Homo sapiens, UniProt P37288); assay: Receptor binding study, [3H]AVP displacement on CHO cell membranes, human V1a; conditions: [3H]AVP displacement, CHO cell membrane, 25° C., one hour; read-out: Human V1a Ki
Summary of the method: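 Membrane binding in 50 mM Tris-HCl pH 7.4 with MgCl2 and 0.1% BSA, incubated 1 h at 25° C. Bound ligand collected by rapid filtration on glass fiber filters, washed with ice-cold buffer, and counted for radioactivity. Nonspecific binding defined with 1 μM unlabeled AVP.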

[2] = target: human vasopressin V2 receptor (Homo sapiens, UniProt P30518); assay: Receptor binding study, [3H]AVP displacement on CHO cell membranes, human V2; conditions: [3H]AVP displacement, CHO cell membrane, 25° C., one hour; read-out: Human V2 Ki
human vasopressin V2 receptor, sequence (P30518 whole entry): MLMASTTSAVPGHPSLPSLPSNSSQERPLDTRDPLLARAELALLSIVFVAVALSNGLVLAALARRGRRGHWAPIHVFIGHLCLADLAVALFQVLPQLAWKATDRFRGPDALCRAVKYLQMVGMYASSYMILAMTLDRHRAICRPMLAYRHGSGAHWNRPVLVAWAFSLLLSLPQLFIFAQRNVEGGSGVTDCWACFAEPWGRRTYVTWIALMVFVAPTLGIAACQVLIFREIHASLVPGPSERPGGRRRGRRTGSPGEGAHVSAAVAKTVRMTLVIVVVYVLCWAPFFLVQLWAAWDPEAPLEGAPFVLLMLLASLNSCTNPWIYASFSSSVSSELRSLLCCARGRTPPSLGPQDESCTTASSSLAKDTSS
Summary of the method: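 Displacement format: test compound over a concentration range competes with constant [3H]AVP (0.5 nM to 1.0 nM) for human V2 sites on CHO membranes, one hour at room temperature (25 °C), Tris-HCl pH 7.4 buffer. Filtration then radioactivity counting; 1 μM non-radioactive AVP gives nonspecific binding.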

human vasopressin V1a receptor, sequence (P37288 whole entry): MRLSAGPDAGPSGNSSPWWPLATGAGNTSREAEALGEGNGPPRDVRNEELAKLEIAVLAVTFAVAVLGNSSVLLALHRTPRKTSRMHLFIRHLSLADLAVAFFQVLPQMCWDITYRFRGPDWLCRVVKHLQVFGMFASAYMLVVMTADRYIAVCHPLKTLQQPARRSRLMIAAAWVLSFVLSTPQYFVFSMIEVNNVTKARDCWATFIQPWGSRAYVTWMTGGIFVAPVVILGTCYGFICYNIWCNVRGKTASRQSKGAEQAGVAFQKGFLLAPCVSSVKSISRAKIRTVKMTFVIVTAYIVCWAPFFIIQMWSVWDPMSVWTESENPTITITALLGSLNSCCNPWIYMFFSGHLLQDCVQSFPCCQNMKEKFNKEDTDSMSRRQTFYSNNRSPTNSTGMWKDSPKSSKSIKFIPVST

C[C@H]1CCN(C(=O)c2ccc(-c3ccc4[nH]ccc4c3)c(OCCCN3CCC(C(N)=O)CC3)c2)c2ccccc2N1 [Example 83, 1-[3-[2-(1H-indol-5-yl)-5-[[(4S)-4-methyl-2,3,4,5-tetrahydro-1H-1,5-benzodiazepin-1-yl]carbonyl]phenoxy]propyl]-4-piperidine carboxamide] gave a Ki [1] of 0.13 nM and a Ki [2] of 17 nM.

In the case of C[C@H]1CCN(C(=O)c2ccc(-c3ccc4[nH]ccc4c3)c(OCCN3CCOCC3)c2)c2ccccc2N1 [Example 59, (4S)-1-[4-(1H-indol-5-yl)-3-[2-(4-morpholinyl)ethoxy]benzoyl]-4-methyl-2,3,4,5-tetrahydro-1H-1,5-benzodiazepine], the Ki [1] is reported as 0.23 nM and the Ki [2] is reported as 0.89 nM.

CCCN1CCN(CCOc2cc(C(=O)N3CC[C@H](C)Nc4ccccc43)ccc2-c2ccc(NCC)cc2)CC1 [Example 160, N-ethyl-4′-[[(4S)-4-methyl-2,3-4,5-tetrahydro-1H-1,5-benzodiazepin-1-yl]carbonyl]-2′-[2-(4-propyl-1-piperazinyl)ethoxy][1,1′-biphenyl]-4-amine] gave a Ki [1] of 0.2 nM and a Ki [2] of 22 nM.

Work on CC(=O)Nc1cc(C(=O)N2CCC(C(C)C)Nc3ccccc32)ccc1-c1ccc2[nH]ccc2c1 (stereo not drawn) [Example 7, N-[2-(1H-indol-5-yl)-5-[(4-isopropyl-2,3,4,5-tetrahydro-1H-1,5-benzodiazepin-1-yl)carbonyl]phenyl]acetamide] yielded a Ki [1] of 0.38 nM and a Ki [2] of 15 nM.

Compound CCCN(CC)CCCOc1cc(C(=O)N2CC[C@H](C)Nc3ccccc32)ccc1-c1ccc2[nH]ccc2c1 [Example 125, N-ethyl-3-[2-(1H-indol-5-yl)-5-[[(4S)-4-methyl-2,3,4,5-tetrahydro-1H-1,5-benzodiazepin-1-yl]carbonyl]phenoxy]-N-propyl-1-propaneamine] has a Ki [1] of 0.18 nM and a Ki [2] of 15 nM.

CC1CCN(C(=O)c2ccc(-c3ccc4[nH]ccc4c3)c(OCCCCCCN)c2)c2ccccc2N1 (stereo not drawn) [Example 39, 6-[2-(1H-indol-5-yl)-5-[(4-methyl-2,3,4,5-tetrahydro-1H-1,5-benzodiazepin-1-yl)carbonyl]phenoxy]hexylamine] gave a Ki [1] of 0.22 nM and a Ki [2] of 5.2 nM.

COc1cc(C(=O)N2CCC(C)(C)Nc3ccccc32)ccc1-c1ccc2[nH]ccc2c1 [Example 2, 1-[4-(1H-indol-5-yl)-3-methoxybenzoyl]-4,4-dimethyl-2,3,4,5-tetrahydro-1H-1,5-benzodiazepine] showed a Ki [1] of 0.31 nM and a Ki [2] of 4.4 nM.

CCCN1CCC(OC(=O)c2cc(C(=O)N3CC[C@H](C)Nc4ccccc43)ccc2-c2ccc3[nH]ccc3c2)CC1 [Example 138] showed a Ki [1] of 0.23 nM and a Ki [2] of 34 nM.

Work on CCCN1CCN(CCCOc2cc(C(=O)N3CC[C@@H](C)Nc4ccccc43)ccc2-c2ccc3[nH]ccc3c2)CC1 [Example 128, (4R)-1-[4-(1H-indol-5-yl)-3-[3-(4-propyl-1-piperazinyl)propoxy]benzoyl]-4-methyl-2,3,4,5-tetrahydro-1H-1,5-benzodiazepine] yielded a Ki [1] of 0.2 nM and a Ki [2] of 39 nM.

In the case of C[C@H]1CCN(C(=O)c2ccc(-c3ccc4[nH]ccc4c3)c(C(=O)N3CCN(C)CC3)c2)c2ccccc2N1 [Example 102, (4S)-1-[4-(1H-indol-5-yl)-3-[(4-methyl-1-piperazinyl)carbonyl]benzoyl]-4-methyl-2,3,4,5-tetrahydro-1H-1,5-benzodiazepine], the Ki [1] is reported as 0.25 nM and the Ki [2] is reported as 61 nM.

In the case of CCCNCCCOc1cc(C(=O)N2CC[C@H](C)Nc3ccccc32)ccc1-c1ccc(NCC)cc1 [Example 165, N-ethyl-4′-[[(4S)-4-methyl-2,3,4,5-tetrahydro-1H-1,5-benzodiazepin-1-yl]carbonyl]-2′-[3-(propylamino)propoxy][1,1′-biphenyl]-4-amine], the Ki [1] is reported as 0.28 nM and the Ki [2] is reported as 92 nM.

With C[C@H]1CCN(C(=O)c2ccc(-c3ccc4[nH]ccc4c3)c(C(=O)OCCCCN(C)C)c2)c2ccccc2N1 [Example 162, 4-(dimethylamino)butyl 2-(1H-indol-5-yl)-5-[[(4S)-4-methyl-2,3,4,5-tetrahydro-1H-1,5-benzodiazepin-1-yl]carbonyl]benzoate] the Ki [1] was 0.13 nM and the Ki [2] was 29 nM.

For CC1CCN(C(=O)c2ccc(-c3ccc4[nH]ccc4c3)c(OCCCN(C)C)c2)c2ccccc2N1 (stereo not drawn) [Example 42, 3-[2-(1H-indol-5-yl)-5-[(4-methyl-2,3,4,5-tetrahydro-1H-1,5-benzodiazepin-1-yl)carbonyl]phenoxy]-N,N-dimethyl-1-propaneamine], the Ki [1] was 0.19 nM and the Ki [2] was 34 nM.

Work on C[C@H]1CCN(C(=O)c2ccc(-c3ccc4[nH]ccc4c3)c(N3CCN(C)CC3)c2)c2ccccc2N1 [Example 149, (4S)-1-[4-(1H-indol-5-yl)-3-(4-methyl-1-piperazinyl)benzoyl]-4-methyl-2,3,4,5-tetrahydro-1H-1,5-benzodiazepine] yielded a Ki [1] of 0.29 nM and a Ki [2] of 1.9 nM.

For CC(=O)Nc1cc(C(=O)N2CC[C@@H](C)Nc3ccccc32)ccc1-c1ccc2[nH]ccc2c1 [Example 16, N-[2-(1H-indol-5-yl)-5-[[(4R)-4-methyl-2,3,4,5-tetrahydro-1H-1,5-benzodiazepin-1-yl]carbonyl]phenyl]acetamide], the Ki [1] was 0.33 nM and the Ki [2] was 63 nM.

In the case of CCCN(C)CCOc1cc(C(=O)N2CC[C@H](C)Nc3ccccc32)ccc1-c1ccc2[nH]ccc2c1 [Example 121, N-[2-[2-(1H-indol-5-yl)-5-[[(4S)-4-methyl-2,3,4,5-tetrahydro-1H-1,5-benzodiazepin-1-yl]carbonyl]phenoxy]ethyl]-N-methyl-1-propaneamine], the Ki [1] is reported as 0.14 nM and the Ki [2] is reported as 10 nM.

For C[C@H]1CCN(C(=O)c2ccc(-c3ccc4[nH]ccc4c3)c(OCCCN3C(=O)CNC3=O)c2)c2ccccc2N1 [Example 97, 3-[3-[2-(1H-indol-5-yl)-5-[[(4S)-4-methyl-2,3,4,5-tetrahydro-1H-1,5-benzodiazepin-1-yl]carbonyl]phenoxy]propyl]-2,4-imidazolidinedion], the Ki [1] was 0.13 nM and the Ki [2] was 0.39 nM.

C[C@@H]1CCN(C(=O)c2ccc(-c3ccc4[nH]ccc4c3)c(OCCN3CCOCC3)c2)c2ccccc2N1 [Example 66, (4R)-1-[4-(1H-indol-5-yl)-3-[2-(4-morpholinyl)ethoxy]benzoyl]-4-methyl-2,3,4,5-tetrahydro-1H-1,5-benzodiazepine] gave a Ki [1] of 0.41 nM and a Ki [2] of 3.6 nM.

Compound C[C@@H]1CN(CCCOc2cc(C(=O)N3CC[C@H](C)Nc4ccccc43)ccc2-c2ccc3[nH]ccc3c2)C[C@H](C)O1 [Example 115, (4S)-1-[3-[3-[(2R,6S)-2,6-dimethylmorpholinyl]propoxy]-4-(1H-indol-5-yl)benzoyl]-4-methyl-2,3,4,5-tetrahydro-1H-1,5-benzodiazepine] has a Ki [1] of 0.27 nM and a Ki [2] of 4.9 nM.

C[C@H]1CCN(C(=O)c2ccc(-c3ccc4[nH]ccc4c3)c(OCCCN3CCC(NC=O)CC3)c2)c2ccccc2N1 [Example 87, 1-[3-[2-(1H-indol-5-yl)-5-[[(4S)-4-methyl-2,3,4,5-tetrahydro-1H-1,5-benzodiazepin-1-yl]carbonyl]phenoxy]propyl]-4-piperidinylformamide] gave a Ki [1] of 0.086 nM and a Ki [2] of 8.7 nM.

CCCCN(CC)CCCOc1cc(C(=O)N2CC[C@H](C)Nc3ccccc32)ccc1-c1ccc2[nH]ccc2c1 [Example 124, N-ethyl-N-[3-[2-(1H-indol-5-yl)-5-[[(4S)-4-methyl-2,3,4,5-tetrahydro-1H-1,5-benzodiazepin-1-yl]carbonyl]phenoxy]propyl]-1-butaneamine] gave a Ki [1] of 0.37 nM and a Ki [2] of 20 nM.

C[C@H]1CCN(C(=O)c2ccc(-c3ccc4[nH]ccc4c3)c(OCCCCN3CCN(C)CC3)c2)c2ccccc2N1 [Example 103] showed a Ki [1] of 0.24 nM and a Ki [2] of 3.6 nM.

Work on CCCN(C)CCCOc1cc(C(=O)N2CC[C@H](C)Nc3ccccc32)ccc1-c1ccc(NCC)cc1 [Example 129, N-ethyl-2′-[3-[methyl(propyl)amino]propoxy]-4′-[[(4S)-4-methyl-2,3,4,5-tetrahydro-1H-1,5-benzodiazepin-1-yl]carbonyl][1,1′-biphenyl]-4-amine] yielded a Ki [1] of 0.4 nM and a Ki [2] of 88 nM.

CCOC(=O)CC(=O)NCCCOc1cc(C(=O)N2CC[C@H](C)Nc3ccccc32)ccc1-c1ccc2[nH]ccc2c1 [Example 170, ethyl 3-[[3-[2-(1H-indol-5-yl)-5-[[(4S)-4-methyl-2,3,4,5-tetrahydro-1H-1,5-benzodiazepin-1-yl]carbonyl]phenoxy]propyl]amino]-3-oxopropanoate] gave a Ki [1] of 0.37 nM and a Ki [2] of 2.6 nM.

CC1CCN(C(=O)c2ccc(-c3ccc4[nH]ccc4c3)c(OCCCNC(=O)CN)c2)c2ccccc2N1 (stereo not drawn) [Example 169, 2-amino-N-[3-[2-(1H-indol-5-yl)-5-[(4-methyl-2,3,4,5-tetrahydro-1H-1,5-benzodiazepin-1-yl]carbonyl]phenoxy]propyl]acetamide] showed a Ki [1] of 0.13 nM and a Ki [2] of 4.9 nM.

For CCN(C)CCCCOc1cc(C(=O)N2CC[C@H](C)Nc3ccccc32)ccc1-c1ccc2[nH]ccc2c1 [Example 172, N-ethyl-4-[2-(1H-indol-5-yl)-5-[[(4S)-4-methyl-2,3,4,5-tetrahydro-1H-1,5-benzodiazepin-1-yl]carbonyl]phenoxy]-N-methyl-1-butaneamine], the Ki [1] was 0.093 nM and the Ki [2] was 7.1 nM.

Work on CNc1ccc(-c2ccc(C(=O)N3CC[C@H](C)Nc4ccccc43)cc2OCCN2CCOCC2)cc1 [Example 74, N-methyl-4′-[[(4S)-4-methyl-2,3,4,5-tetrahydro-1H-1,5-benzodiazepin-1-yl]carbonyl]-2′-[2-(4-morpholinyl)ethoxy][1,1′-biphenyl]-4-amine] yielded a Ki [1] of 0.24 nM and a Ki [2] of 6.1 nM.
